Measurements from patent US20260108483A1, “METHODS AND COMPOSITIONS FOR PREVENTING THE PROGRESSION OF DIABETIC RETINOPATHY AND RELATED CONDITIONS” (Opus Genetics, Inc., priority 2023, published 2026).

Assay: Clinical study safety: treatment-emergent adverse events
Assay type: in vivo, human
Source text: The study was configured as a placebo-controlled, double-masked, randomized, Phase 2 study in approximately 100 subjects with moderately severe to severe NPDR (diabetic retinopathy severity score [DRSS] Level 47 or 53, see FIG. 1) or mild PDR (DRSS Level 61), evaluating safety and efficacy following administration of Compound 1 twice daily for 24 weeks. The study was configured for a 1:1 randomization (placebo: Compound 1). Randomization was stratified by level of disease severity (NPDR or PDR). Subjects with mild PDR were capped at 20% for each arm. Efficacy evaluations at 12 and/or 24 weeks included DRSS, center-involved diabetic macular edema (DME), moderate PDR or PDR-related adverse events (AEs), best-corrected visual acuity (BCVA), and central subfield thickness (CST). Further experimental procedures and results are described below.
At the Qualification/Baseline (Visit 2, Day 1): • The subject was randomized into the study. • Study medication was dispensed in accordance with the subjects randomized treatment arm. • Blood samples were drawn pre-dose for baseline levels and on Visit 9 (Week 24) for exploratory biomarker processing (i.e., cytokine and Ref-1 levels) to evaluate pharmacodynamic properties. • Subjects were instructed to administer their study medication (Compound 1 or placebo) each day, with 3 tablets every morning and 2 tablets every evening. Study medication was to be taken at approximately the same time each day and may be taken with or without food.
Safety endpoints include: • Incidence and severity of systemic and ocular AEs, • Change from baseline in body system assessments, • Change from baseline in vital sign measurements, • Change from baseline in clinical laboratory assay results (blood chemistry, hematology), • Change from baseline in intraocular pressure (IOP), • Change from baseline in slit-lamp examination parameters, • Change from baseline in dilated funduscopic examination parameters, • Percent of subjects with a decrease of ≥10 letters in BCVA compared to baseline at Week 12 and Week 24, • Percent of subjects progressing to center-involved DME (eligible for rescue treatment at Week 12 and Week 24), • Percent of subjects with a worsening in DRSS of ≥2 steps in the study eye at Week 12 and Week 24, • Percent of subjects developing anterior segment neovascularization at Week 12 and Week 24, • Percent of subjects rescued (intravitreal anti-VEGF injection, laser PRP, focal/grid laser treatment, or surgery [vitrectomy]) at the discretion of the Investigator at Week 12 and Week 24, and • Change from baseline in estimated glomerular filtration rate (eGFR) at Week 12 and Week 24.
Analysis populations included: • Modified Intention-to-Treat (mITT): The mITT includes all randomized subjects who received at least one dose of study treatment and at least one post-dose efficacy measurement. […] The PP population will be used for primary endpoint analysis and to analyze efficacy endpoints. • All Randomized Population (ARP): The ARP includes all randomized subjects. This population is also known as the Intent-to-Treat (ITT) population. The ARP will be used in confirmatory efficacy analyses. • Safety Population (SP): The SP includes all randomized subjects who have received at least one dose of study treatment. The SP was used to summarize safety variables.
Provided below is data on safety on Compound 1 orally administered to patients according to the study protocol described herein. The data is from one-hundred patients that were enrolled in the trial. Per the study protocol described above, patients enrolled in the study were randomized 1:1 for receipt of placebo versus Compound 1. The safety data below is the combined results from patients that received placebo and those received Compound 1.
Table 9 below provides a summary of occurrence of adverse events across 100 subjects enrolled in the study, which is the combined results from patients that received placebo and those that received Compound 1. […]

[1] = 100 subjects, combined placebo + Compound 1, bilateral ocular events counted twice
[2] = 100 subjects, combined placebo + Compound 1 patients

CCCCCCCCC/C(=C\C1=C(C)C(=O)C(OC)=C(OC)C1=O)C(=O)O [Compound 1, (E)-2-((4,5-dimethoxy-2-methyl-3,6-dioxocyclohexa-1,4-dien-1-yl)methylene)undecanoic acid]
No. of Subjects That Experienced a Treatment-Emergent Adverse the Category: Anterior (eye disorder) [1]: 5
No. of Subjects That Experienced a Treatment-Emergent Adverse the Category: Posterior (eye disorder) [1]: 9
No. of Subjects That Experienced a Treatment-Emergent Adverse the Category: Blood or lymphatic system disorder [2]: 1
No. of Subjects That Experienced a Treatment-Emergent Adverse the Category: Cardiac disorder [2]: 1
No. of Subjects That Experienced a Treatment-Emergent Adverse the Category: Ear or labyrinth disorder [2]: 1
No. of Subjects That Experienced a Treatment-Emergent Adverse the Category: Eye disorder [2]: 9
No. of Subjects That Experienced a Treatment-Emergent Adverse the Category: Gastrointestinal disorder [2]: 9
No. of Subjects That Experienced a Treatment-Emergent Adverse the Category: General disorders or administration site condition [2]: 1
No. of Subjects That Experienced a Treatment-Emergent Adverse the Category: Hepatobiliary disorder [2]: 1
No. of Subjects That Experienced a Treatment-Emergent Adverse the Category: Infection or infestation [2]: 9
No. of Subjects That Experienced a Treatment-Emergent Adverse the Category: Injury, poisoning, or procedural complication [2]: 1
No. of Subjects That Experienced a Treatment-Emergent Adverse the Category: Investigation [2]: 3
No. of Subjects That Experienced a Treatment-Emergent Adverse the Category: Metabolism or nutrition disorder [2]: 1
No. of Subjects That Experienced a Treatment-Emergent Adverse the Category: Musculoskeletal and connective tissue disorder [2]: 5
No. of Subjects That Experienced a Treatment-Emergent Adverse the Category: Nervous system disorder [2]: 7
No. of Subjects That Experienced a Treatment-Emergent Adverse the Category: Not coded [2]: 4
No. of Subjects That Experienced a Treatment-Emergent Adverse the Category: Psychiatric disorder [2]: 2
No. of Subjects That Experienced a Treatment-Emergent Adverse the Category: Reproductive system or breast disorder [2]: 1
No. of Subjects That Experienced a Treatment-Emergent Adverse the Category: Respiratory, thoracic, or mediastinal disorder [2]: 2
No. of Subjects That Experienced a Treatment-Emergent Adverse the Category: Skin and subcutaneous tissue disorder [2]: 7
No. of Subjects That Experienced a Treatment-Emergent Adverse the Category: Vascular disorder [2]: 1
safety profile (administered according to study protocol, 600 mg/day oral, 24 weeks): good safety profile
total treatment-emergent adverse events observed (from 100 subjects, combined placebo + Compound 1 patients): 83
subjects reporting at least one treatment-emergent adverse event (of 100 subjects, combined placebo + Compound 1 patients): 41
